Experimental data reported in US20250000865A1, “COMPOUND FOR REDUCING URIC ACID LEVELS” (NEWSOARA BIOPHARMA CO., LTD., priority 2021, published 2025).

System: healthy subjects
Assay: Phase I clinical trial, single-dose groups: uric acid index before and after treatment
Format: in vivo, human
Conditions: N = 9
Protocol: The changes of uric acid levels in subjects in single-dose and multi-dose groups of Compound I are shown in FIG. 1A (single dose of 6 mg and single dose of 10 mg), FIG. 1B (single dose of 20 mg and single dose of 30 mg), and FIG. 2 (multi-dose of 10 mg and multi-dose of 20 mg). The corresponding results are also shown in Tables 1.1, 1.2, 1.3, and 2.1, and tables 2.2, 2.3, and 2.4.

[1] = Last visit (day 6), single dose 6 mg
[2] = Last visit (day 6), single dose 10 mg

## COc1cccc2c1ncc1c(=O)n(C3CCC(C(=O)O)CC3)c(=O)n(-c3cccc(Cl)c3)c12 (stereo not drawn) [Compound I, 4-[1-(3-chlorophenyl)-7-methoxy-2,4-dioxo-pyrimido[5,4-c]quinolin-3-yl]cyclohexanecarboxylic acid]
Baseline, single dose 6 mg
  Uric acid (UA) Mean: 315.9 µmol/L
  Uric acid (UA) Median: 319.0 µmol/L
  Uric acid (UA) Minimum value: 185 µmol/L
  Uric acid (UA) maximum value: 429 µmol/L
Baseline, single dose 10 mg
  Uric acid (UA) Mean: 335.2 µmol/L
  Uric acid (UA) Median: 330.0 µmol/L
  Uric acid (UA) Minimum value: 224 µmol/L
  Uric acid (UA) maximum value: 446 µmol/L
Baseline, single dose 20 mg
  Uric acid (UA) Mean: 326.0 µmol/L
  Uric acid (UA) Median: 320.0 µmol/L
  Uric acid (UA) Minimum value: 256 µmol/L
  Uric acid (UA) maximum value: 436 µmol/L
Baseline, single dose 30 mg
  Uric acid (UA) Mean: 300.9 µmol/L
  Uric acid (UA) Median: 277.0 µmol/L
  Uric acid (UA) Minimum value: 209 µmol/L
  Uric acid (UA) maximum value: 401 µmol/L
Day 2, single dose 6 mg
  Uric acid (UA) Mean: 272.9 µmol/L
  Uric acid (UA) Median: 272.0 µmol/L
  Uric acid (UA) Minimum value: 160 µmol/L
  Uric acid (UA) maximum value: 347 µmol/L
Day 2, single dose 10 mg
  Uric acid (UA) Mean: 266.1 µmol/L
  Uric acid (UA) Median: 254.0 µmol/L
  Uric acid (UA) Minimum value: 161 µmol/L
  Uric acid (UA) maximum value: 447 µmol/L
Day 2, single dose 20 mg
  Uric acid (UA) Mean: 194.9 µmol/L
  Uric acid (UA) Median: 209.0 µmol/L
  Uric acid (UA) Minimum value: 105 µmol/L
  Uric acid (UA) maximum value: 251 µmol/L
Day 2, single dose 30 mg
  Uric acid (UA) Mean: 135.8 µmol/L
  Uric acid (UA) Median: 144.0 µmol/L
  Uric acid (UA) Minimum value: 60 µmol/L
  Uric acid (UA) maximum value: 178 µmol/L
Day 4, single dose 6 mg
  Uric acid (UA) Mean: 285.9 µmol/L
  Uric acid (UA) Median: 300.0 µmol/L
  Uric acid (UA) Minimum value: 193 µmol/L
  Uric acid (UA) maximum value: 378 µmol/L
Day 4, single dose 10 mg
  Uric acid (UA) Mean: 302.8 µmol/L
  Uric acid (UA) Median: 304.0 µmol/L
  Uric acid (UA) Minimum value: 199 µmol/L
  Uric acid (UA) maximum value: 462 µmol/L
Day 4, single dose 20 mg
  Uric acid (UA) Mean: 277.7 µmol/L
  Uric acid (UA) Median: 279.0 µmol/L
  Uric acid (UA) Minimum value: 179 µmol/L
  Uric acid (UA) maximum value: 340 µmol/L
Day 4, single dose 30 mg
  Uric acid (UA) Mean: 217.9 µmol/L
  Uric acid (UA) Median: 232.0 µmol/L
  Uric acid (UA) Minimum value: 140 µmol/L
  Uric acid (UA) maximum value: 266 µmol/L
[1]
  Uric acid (UA) Mean: 327.2 µmol/L
  Uric acid (UA) Median: 341.0 µmol/L
  Uric acid (UA) Minimum value: 227 µmol/L
  Uric acid (UA) maximum value: 431 µmol/L
[2]
  Uric acid (UA) Mean: 357.3 µmol/L
  Uric acid (UA) Median: 367.0 µmol/L
  Uric acid (UA) Minimum value: 243 µmol/L
  Uric acid (UA) maximum value: 508 µmol/L
Last visit (day 6), single dose 20 mg
  Uric acid (UA) Mean: 341.1 µmol/L
